Data published in US10869846B2, “N-acetylcysteine amide (NAC amide) in the treatment of diseases and conditions associated with oxidative stress” (SENTIENT LIFESCIENCES, INC., priority 2005, dated 2020).

Legend:
[1] = system: PC12 cells; experiment: MDA measurement in glutamate-exposed cells; type: cell-based; conditions: GLU (10 mM) alone, 24 h
Protocol: MDA measurement: To prepare the solution, 350 μl of straight cell homogenate, 100 μl of 500 ppm BHT (butylated hydroxytoluene), and 550 μl of 10% TCA (trichloroacetic acid) were combined and boiled for 30 min. The tubes were cooled on ice and centrifuged for 10 min at 2500 rpm. Five hundred (500) μl of the supernatant were removed and 500 μl of TBA (thiobarbituric acid) were added. The tubes were boiled again for 30 min, and then cooled on ice. From this solution, 500 μl were removed, added to 1.0 ml of n-butanol, vortexed, and centrifuged for 5 min at 60 g to facilitate a phase separation. The top layer was then filtered through 0.45 μm filters and injected onto a 5 μm C18 column (250×4.6 mm) on a reverse phase HPLC system. The mobile phase consisted of 69.4% 5 mM sodium phosphate buffer (pH=7.0), 30% acetonitrile, and 0.6% THF (tetrahydrofuran). The excitation wavelength was 515 nm; the emission wavelength was 550 nm (Draper H. H. et al., Free Radic Biol Med., 15(4):353-63, 1993).
Cells were plated and grown for 24 hours, and then they were exposed to glutamate (10 mM) in the presence or absence of NAC amide (750 μM). Twenty-four hours later, the cells were harvested and malondialdehyde levels were measured. Values represent means.+−.SD. Statistically different values of *P<0.002 and **P<0.05 were determined, compared to control. ***P<0.05 compared to glutamate-treated group.

[2] = system: PC12 cells; experiment: GSH measurement in cells (NPM/HPLC); type: cell-based; conditions: GLU (10 mM) alone
Protocol: Cells were seeded at a density of 80,000 cells/cm^2 on poly-D-lysine coated (0.05 mg/ml) 75 cm^2 flasks (5 ml/flask) for GSH measurement. […] After the incubation period, cells were removed from the cultures and homogenized in serine borate buffer (100 mM Tris-HCl, 10 mM boric acid, 5 mM L-serine, 1 mM DETAPAC, pH 7.4). Twenty (20) μl of the diluted cell homogenate were added to 230 μl of serine borate buffer and 750 μl of NPM (1 mM in acetonitrile). The resulting solutions were incubated at room temperature for 5 min. The reaction was stopped by the addition of 5 μl of 2N HCl. The samples were then filtered through a 0.2 μm Acrodisc filter and injected onto the HPLC system.
[…] Values represent means.+−.SD. Statistically different values of *P<0.05 were determined, compared to control. **P<0.001 compared to glutamate-treated group. ***P<0.05 compared to glutamate-treated group.

[3] = system: mouse; conditions: subcutaneous injection; cited from earlier work

| Structure (SMILES) | MDA Levels [1] [nM/100 mg protein] | GSH Levels [2] [nM/mg protein] | toxicity relative to morphine [3] [times] |
| --- | --- | --- | --- |
| N[C@@H](CCC(=O)O)C(=O)O [GLU, glutamate, reference compound] | 247 ± 26 | 23 ± 4.2 | – |
| CN1CC[C@]23c4c5ccc(O)c4O[C@H]2C(=O)C=C[C@H]3[C@H]1C5 [Morphinone, morphinone] | – | – | 9 |
